{"source": "ChEMBL document CHEMBL4715932", "about": "“Positional Isomers of Biphenyl Antimicrobial Peptidomimetic Amphiphiles” (ACS Med Chem Lett, 2021)", "key": {"Staphylococcus aureus [1]": {"test_system": "Staphylococcus aureus", "test": "Antibacterial activity against methicillin-resistant Staphylococcus aureus NCTC 10442 assessed as inhibition of growth visually by CLSI method", "format": "functional"}, "Enterococcus faecalis [2]": {"test_system": "Enterococcus faecalis", "test": "Antibacterial activity against vancomycin-resistant Enterococcus faecalis ATCC 51299 assessed as inhibition of growth visually by CLSI method", "format": "functional"}, "Escherichia coli [3]": {"test_system": "Escherichia coli", "test": "Antibacterial activity against Escherichia coli ATCC 10418 assessed as inhibition of growth visually by CLSI method", "format": "functional"}, "[4]": {"test": "Hemolytic activity in human RBC assessed as hemolysis incubated for 1 hr by CO-ADD method", "format": "ADME, cell-based, Erythrocyte", "conditions": "red blood cells (erythrocytes)"}, "[5]": {"test": "Cytotoxicity against human HEK-293 cells assessed as maximal inhibition at <= 32 ug/ml incubated for 23 hrs by CO-ADD method", "format": "cell-based, HEK293", "conditions": "dose <=32 µg/ml, read-out: Imax"}, "Clostridioides difficile [6]": {"test_system": "Clostridioides difficile", "test": "Antibacterial activity against Clostridioides difficile NSW 132 (RT027) assessed as inhibition of growth visually preincubated for 2 to 4 hrs measured after 48 hrs by CLSI method", "format": "functional", "conditions": "time hrs <=52"}, "Staphylococcus aureus [7]": {"test_system": "Staphylococcus aureus", "test": "Antibacterial activity against vancomycin intermediate susceptibility Staphylococcus aureus Mu50 assessed as inhibition of growth visually by CLSI method", "format": "functional"}, "Klebsiella pneumoniae": {"test_system": "Klebsiella pneumoniae", "test": "Antimicrobial activity against multidrug-resistant Klebsiella pneumoniae ATCC 700603 assessed as growth inhibition incubated for 18 hrs", "format": "functional"}, "Streptococcus pneumoniae": {"test_system": "Streptococcus pneumoniae", "test": "Antibacterial activity against Streptococcus pneumoniae ATCC 49619 assessed as inhibition of growth visually by CLSI method", "format": "functional"}, "[8]": {"test": "Hemolytic activity in sheep RBC assessed as hemolysis at 5 microg/ml incubated for 2 hrs by CO-ADD method", "format": "ADME, cell-based, Ovis aries, Erythrocyte", "conditions": "red blood cells (erythrocytes), at 5 µg/mL, read-out: Activity"}, "Enterococcus faecalis [9]": {"test_system": "Enterococcus faecalis", "test": "Antibacterial activity against Enterococcus faecalis ATCC 29212 assessed as inhibition of growth visually by CLSI method", "format": "functional"}, "Candida albicans": {"test_system": "Candida albicans", "test": "Antifungal activity against Candida albicans ATCC 90028 assessed as growth inhibition incubated for 36 hrs", "format": "functional", "conditions": "28A ATCC 90028"}, "Escherichia coli [10]": {"test_system": "Escherichia coli", "test": "Antimicrobial activity against Escherichia coli ATCC 25922 assessed as growth inhibition incubated for 18 hrs", "format": "functional"}, "Cryptococcus neoformans": {"test_system": "Cryptococcus neoformans", "test": "Antifungal activity against Cryptococcus neoformans H99 ATCC 208821 assessed as growth inhibition incubated for 36 hrs", "format": "functional", "conditions": "var. grubii H99 ATCC 208821"}, "[11]": {"test": "Hemolytic activity in human RBC assessed as maximal hemolysis at <= 32 ug/ml incubated for 1 hr by CO-ADD method", "format": "cell-based, Erythrocyte", "conditions": "red blood cells (erythrocytes), dose <=32 µg/ml, read-out: Activity"}, "Pseudomonas aeruginosa": {"test_system": "Pseudomonas aeruginosa", "test": "Antimicrobial activity against Pseudomonas aeruginosa ATCC 27853 assessed as growth inhibition incubated for 18 hrs", "format": "functional"}, "[12]": {"test": "Cytotoxicity against human HEK-293 cells incubated for 23 hrs by CO-ADD method", "format": "cell-based, HEK293"}, "Acinetobacter baumannii": {"test_system": "Acinetobacter baumannii", "test": "Antimicrobial activity against Acinetobacter baumannii ATCC 19606 assessed as growth inhibition incubated for 18 hrs", "format": "functional"}, "Clostridioides difficile [13]": {"test_system": "Clostridioides difficile", "test": "Antibacterial activity against Clostridioides difficile ATCC 700057 assessed as inhibition of growth visually preincubated for 2 to 4 hrs measured after 48 hrs by CLSI method", "format": "functional", "conditions": "time hrs <=52"}, "Staphylococcus aureus [14]": {"test_system": "Staphylococcus aureus", "test": "Antimicrobial activity against methicillin resistant Staphylococcus aureus ATCC 43300 assessed as growth inhibition incubated for 18 hrs", "format": "functional"}, "Staphylococcus aureus [15]": {"test_system": "Staphylococcus aureus", "test": "Antibacterial activity against Staphylococcus aureus ATCC 29213 assessed as inhibition of growth visually by CLSI method", "format": "functional"}, "[16]": {"test": "Hemolytic activity in sheep RBC assessed as hemolysis at 50 microg/ml incubated for 2 hrs", "format": "ADME, cell-based, Ovis aries, Erythrocyte", "conditions": "red blood cells (erythrocytes), at 50 µg/mL, read-out: Activity"}}}
{"molecule": "CC(C)CCOc1ccc(-c2ccccc2OCc2cn(C[C@@H](CCCCN)NC(=O)[C@@H](CCCNC(=N)N)n3cc(CC4CCCCC4)nn3)nn2)cc1.Cl.Cl", "values": [{"measurement": "MIC", "setting": "Staphylococcus aureus [1]", "value": 2, "unit": "µg/mL"}, {"measurement": "MIC", "setting": "Enterococcus faecalis [2]", "value": 8, "unit": "µg/mL"}, {"measurement": "MIC", "setting": "Escherichia coli [3]", "value": 4, "unit": "µg/mL"}, {"measurement": "HC50 at 1 h", "setting": "[4]", "value": "> 32", "unit": "µg/mL"}, {"measurement": "Emax at 23 h", "setting": "[5]", "value": 13, "unit": "%"}, {"measurement": "MIC", "setting": "Clostridioides difficile [6]", "value": 16, "unit": "µg/mL"}, {"measurement": "MIC", "setting": "Staphylococcus aureus [7]", "value": 4, "unit": "µg/mL"}, {"measurement": "MIC80", "setting": "Klebsiella pneumoniae", "value": 32, "unit": "µg/mL"}, {"measurement": "MIC", "setting": "Streptococcus pneumoniae", "value": 1, "unit": "µg/mL"}, {"measurement": "hemolysis at 2 h, 5 microg/ml", "setting": "[8]", "value": 2.7, "unit": "%"}, {"measurement": "MIC", "setting": "Enterococcus faecalis [9]", "value": 4, "unit": "µg/mL"}, {"measurement": "MIC80", "setting": "Candida albicans", "value": "> 32", "unit": "µg/mL"}, {"measurement": "MIC80", "setting": "Escherichia coli [10]", "value": 4, "unit": "µg/mL"}, {"measurement": "MIC80", "setting": "Cryptococcus neoformans", "value": "> 32", "unit": "µg/mL"}, {"measurement": "hemolysis at 1 h", "setting": "[11]", "value": 41, "unit": "%"}, {"measurement": "MIC80", "setting": "Pseudomonas aeruginosa", "value": 8, "unit": "µg/mL"}, {"measurement": "CC50 at 23 h", "setting": "[12]", "value": "> 32", "unit": "µg/mL"}, {"measurement": "MIC80", "setting": "Acinetobacter baumannii", "value": 4, "unit": "µg/mL"}, {"measurement": "MIC", "setting": "Clostridioides difficile [13]", "value": 16, "unit": "µg/mL"}, {"measurement": "MIC80", "setting": "Staphylococcus aureus [14]", "value": "≤ 0.25", "unit": "µg/mL"}, {"measurement": "MIC", "setting": "Staphylococcus aureus [15]", "value": 4, "unit": "µg/mL"}, {"measurement": "hemolysis at 2 h, 50 microg/ml", "setting": "[16]", "value": 63, "unit": "%"}]}
